{"source": "patent US10786521B2", "about": "“Methods and compositions for treatment of COPD diseases” (Shanghai KE Pharmaceutical Co., LTD, priority 2014, dated 2020)", "key": {"[1]": {"system": "airway smooth muscle (bronchial rings)", "experiment": "Relaxation of evoked isometric force of bronchial rings (wire myograph)", "format": "cell-based, mice", "details": "for relaxation of MCh-evoked force at final concentration of 500 μM: 500 μM final, bronchi ring isometric assay; for IC50: MCh-evoked force, dose dependent; for relaxation of evoked force of airway smooth muscle / bronchial rings: in vitro, concentration not given", "protocol": "Briefly, the entire respiratory tree was rapidly removed and immersed in Krebs-Henseleit buffer (118.1 mM NaCl, 4.7 mM KCl, 1.2 mM MgSO4, 2.5 mM CaCl2, 1.0 mM NaH2PO4, 25 mM NaHCO3 and 11.1 mM glucose, pH 7.4). Bronchial rings, 2 mm in length, were isolated from pulmonary bronchi using a dissection microscope. Then the bronchial segments were mounted in a small-vessel wire myograph chamber (Danish Myo Technology, Aarhus, Denmark) by threading on two steel wires (40 μm in diameter) secured to two supports. One support was attached to a force transducer for measurements of isometric force development, and the other was attached to a micrometer controlling ring circumference. The preparation was kept in the chamber, immersed in 5 ml of Krebs-Henseleit solution, bubbled with 5% CO2 and 95% O2 and maintained at 37° C. The initial isometric tension of bronchial ring was set to 0 mN prior to equilibration for 20 min. The bronchial ring was then stretched in order to keep the force at 5 mN followed by an additional equilibration for 20 min. The isometric forces produced by bronchial ring was recorded with a data acquisition and analysis program (Danish Myo Technology, Aarhus, Denmark).\nThe robust relaxation effect and low risk of toxicity of KE on airway smooth muscle indicates its promising prospects for development. To identify the active ingredients of KE, the KE was divided into three parts including EtOAc phase, n-BuOH phase and water phase using EtOAc and n-BuOH sequential extraction. Upon the airway smooth muscle rings reached a relative steady contraction state evoked by MCh, accumulated volume of these three phases was added to assess the relaxation capacity. […] On the other hand, 1 μL of EtOAc phase just relaxed the rings to 90%.\nTheir dose-responsive effect on relaxation of airway smooth muscle was measured. When the force evoked by acetylcholine reached a relatively steady state, kudinosides were added to the bath in cumulative concentrations (0.1 μM, 0.3 μM, 1 μM, 3 μM, 10 μM, 30 μM). […] When the concentration of kudinoside D increased to 10 μM, about 50% of the force was relaxed. Strikingly, upon treatment with 30 μM of kudinoside D, more than 80% of the force was relaxed (FIG. 5B). Similarly, 30 μM of kudinoside A also led to 80% inhibition of evoked force. Note that the relaxation effect of kudinosides was completely reversible, because the relaxed muscles restored response to MCh after washing off."}, "[2]": {"system": "asthmatic airway constriction in acute asthma mouse model", "experiment": "Airway resistance (Rrs, FlexiVent) in OVA-induced, methacholine-challenged asthma mice", "format": "in vivo, C57BL/6 mice", "details": "for inhibition of airway constriction in vivo: mouse", "protocol": "Asthma mice were established as reported previously. Briefly, six to eight-week-old female C57BL/6 mice were carried out by intraperitoneal injection of 100 μg ovalbumin and 4 mg Imject Alum (ThermoFisher Scientific) in total volume of 0.2 mL on days 0 and 14. These mice were then challenged with 1.5%-2% aerosolized ovalbumin for 1 h on days 24, 25 and 26. The efficacy of drugs was evaluated by measuring airway resistance in these mice 24 h after the last challenge.\n(§1) The airway resistance was measured through an invasive method as described in previous reports. In brief, the mice were anesthetized with 240 mg/kg Avertin and the trachea was cannulated with an 18-gauge metal needle. Mechanical ventilation (FlexiVent; SCIREQ Inc., Montreal, Canada) was applied at a frequency of 150 breaths per minute, a tidal volume of 10 ml/kg, and positive end-expiratory pressure of 2.5 cm H2O. Prior to methacholine challenge, deep inflation was applied followed by administration of aerosolized PBS to obtain stabilization of airway resistance (Rrs, cmH2O·s/mL). The Rrs after PBS was considered to be the baseline. Then mice were challenged with sequential concentrations of methacholine with a dose of 2.0, 4.0, 8.0, 16, 32 and 64 mg/mL by an ultrasonic nebulizer until reaching bronchoconstrictive phase that was four to five folds greater than baseline. Three minutes after the last dose of methacholine inhalation, the reagents were delivered by the same ultrasonic nebulizer. The Rrs measurements were performed every 30 s throughout the experiments. The negative control for these studies was PBS, because all the solvents for reagents used here were PBS. As a positive control, albuterol (3 μg; Sigma), the most widely used β-agonist as an effective bronchodilator for asthma therapy, was used.\nas §1, with “Acute asthma model mice were established as reported previously. Briefly, six to eight-week-old female C57BL/6 mice were carried out by intraperitoneal injection of 100 μg ovalbumin and 4 mg Imject Alum (ThermoFisher Scientific) in total volume of 0.2 mL on days 0 and 14. These mice were then challenged with 1.5%-2% aerosolized ovalbumin for 1 h on days 24, 25 and 26. The efficacy of drugs by measuring airway resistance in these mice 24 h was evaluated after the last challenge. The airway” for “The airway”"}, "human asthma (severe)": {"system": "human asthma (severe)", "experiment": "Kudinoside A inhalation (atomization device) in two volunteers with severe asthma syndromes", "format": "in vivo", "details": "volunteer; for time to release of dyspnea: kudinoside A 20 mM inhaled for 15 seconds, albuterol as control", "protocol": "In order to test the effect of single substance in KE extract on asthma therapy, two volunteers with severe asthma syndromes were treated with kudinoside A (20 mM) with an atomization device."}, "L-type calcium channel": {"molecular_target": "T1, L-type calcium channel (Mus musculus, UniProt Q01815)", "T1 construct": "endogenous in cells; host or cells: primary airway smooth muscle cells", "T1 sequence (Q01815 whole entry)": "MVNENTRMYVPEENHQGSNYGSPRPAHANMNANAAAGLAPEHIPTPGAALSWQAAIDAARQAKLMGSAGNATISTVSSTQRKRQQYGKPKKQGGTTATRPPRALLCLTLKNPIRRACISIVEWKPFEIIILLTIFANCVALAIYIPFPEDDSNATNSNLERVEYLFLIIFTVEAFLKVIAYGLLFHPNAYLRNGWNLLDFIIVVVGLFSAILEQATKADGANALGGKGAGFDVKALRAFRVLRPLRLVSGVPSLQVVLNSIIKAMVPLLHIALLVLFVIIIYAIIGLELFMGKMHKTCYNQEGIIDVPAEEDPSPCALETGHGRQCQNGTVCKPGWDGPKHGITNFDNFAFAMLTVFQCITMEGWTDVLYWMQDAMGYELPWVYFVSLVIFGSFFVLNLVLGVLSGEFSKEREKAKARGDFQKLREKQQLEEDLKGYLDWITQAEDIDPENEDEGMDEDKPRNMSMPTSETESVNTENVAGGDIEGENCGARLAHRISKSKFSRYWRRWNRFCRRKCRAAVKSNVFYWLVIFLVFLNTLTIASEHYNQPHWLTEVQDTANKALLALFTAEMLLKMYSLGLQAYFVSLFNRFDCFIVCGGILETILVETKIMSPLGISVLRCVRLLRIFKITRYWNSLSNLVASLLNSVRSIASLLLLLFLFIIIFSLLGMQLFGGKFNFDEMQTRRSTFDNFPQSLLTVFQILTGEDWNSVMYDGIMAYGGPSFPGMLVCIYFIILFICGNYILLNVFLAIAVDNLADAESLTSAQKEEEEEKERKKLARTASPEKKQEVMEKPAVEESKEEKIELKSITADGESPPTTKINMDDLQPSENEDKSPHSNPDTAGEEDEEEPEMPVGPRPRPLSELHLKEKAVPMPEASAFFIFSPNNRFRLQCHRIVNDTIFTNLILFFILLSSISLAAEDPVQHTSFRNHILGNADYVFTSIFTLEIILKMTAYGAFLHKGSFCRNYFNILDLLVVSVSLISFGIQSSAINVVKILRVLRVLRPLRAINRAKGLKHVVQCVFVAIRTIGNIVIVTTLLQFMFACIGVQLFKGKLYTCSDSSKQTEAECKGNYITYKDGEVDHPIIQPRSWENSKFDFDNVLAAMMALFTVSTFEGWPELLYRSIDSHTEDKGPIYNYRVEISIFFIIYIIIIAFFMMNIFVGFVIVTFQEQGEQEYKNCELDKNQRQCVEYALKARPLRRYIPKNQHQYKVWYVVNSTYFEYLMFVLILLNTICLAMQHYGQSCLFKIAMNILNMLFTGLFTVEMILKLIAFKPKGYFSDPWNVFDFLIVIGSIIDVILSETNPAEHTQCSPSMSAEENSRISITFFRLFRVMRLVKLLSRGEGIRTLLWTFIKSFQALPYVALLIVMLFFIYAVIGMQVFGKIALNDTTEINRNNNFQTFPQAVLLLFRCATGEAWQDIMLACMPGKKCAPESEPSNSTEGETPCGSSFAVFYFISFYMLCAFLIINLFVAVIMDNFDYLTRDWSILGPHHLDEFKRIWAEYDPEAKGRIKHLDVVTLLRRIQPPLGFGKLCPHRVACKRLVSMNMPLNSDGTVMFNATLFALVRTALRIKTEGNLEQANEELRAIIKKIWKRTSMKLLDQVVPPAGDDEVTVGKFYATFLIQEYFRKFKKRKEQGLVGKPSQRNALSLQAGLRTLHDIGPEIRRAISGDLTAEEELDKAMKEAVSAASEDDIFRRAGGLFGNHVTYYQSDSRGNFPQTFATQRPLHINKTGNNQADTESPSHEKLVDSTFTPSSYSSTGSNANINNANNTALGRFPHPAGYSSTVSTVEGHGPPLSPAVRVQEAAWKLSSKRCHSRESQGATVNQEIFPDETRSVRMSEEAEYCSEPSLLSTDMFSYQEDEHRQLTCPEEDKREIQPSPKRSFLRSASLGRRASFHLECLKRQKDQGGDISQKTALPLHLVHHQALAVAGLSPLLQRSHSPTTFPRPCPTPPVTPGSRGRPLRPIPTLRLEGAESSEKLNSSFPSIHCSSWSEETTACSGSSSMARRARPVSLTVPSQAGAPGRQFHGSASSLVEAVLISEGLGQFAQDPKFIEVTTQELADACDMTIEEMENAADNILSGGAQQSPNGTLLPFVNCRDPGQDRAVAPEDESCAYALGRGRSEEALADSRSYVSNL", "T1 sequence (O08532 25-1103 partner)": "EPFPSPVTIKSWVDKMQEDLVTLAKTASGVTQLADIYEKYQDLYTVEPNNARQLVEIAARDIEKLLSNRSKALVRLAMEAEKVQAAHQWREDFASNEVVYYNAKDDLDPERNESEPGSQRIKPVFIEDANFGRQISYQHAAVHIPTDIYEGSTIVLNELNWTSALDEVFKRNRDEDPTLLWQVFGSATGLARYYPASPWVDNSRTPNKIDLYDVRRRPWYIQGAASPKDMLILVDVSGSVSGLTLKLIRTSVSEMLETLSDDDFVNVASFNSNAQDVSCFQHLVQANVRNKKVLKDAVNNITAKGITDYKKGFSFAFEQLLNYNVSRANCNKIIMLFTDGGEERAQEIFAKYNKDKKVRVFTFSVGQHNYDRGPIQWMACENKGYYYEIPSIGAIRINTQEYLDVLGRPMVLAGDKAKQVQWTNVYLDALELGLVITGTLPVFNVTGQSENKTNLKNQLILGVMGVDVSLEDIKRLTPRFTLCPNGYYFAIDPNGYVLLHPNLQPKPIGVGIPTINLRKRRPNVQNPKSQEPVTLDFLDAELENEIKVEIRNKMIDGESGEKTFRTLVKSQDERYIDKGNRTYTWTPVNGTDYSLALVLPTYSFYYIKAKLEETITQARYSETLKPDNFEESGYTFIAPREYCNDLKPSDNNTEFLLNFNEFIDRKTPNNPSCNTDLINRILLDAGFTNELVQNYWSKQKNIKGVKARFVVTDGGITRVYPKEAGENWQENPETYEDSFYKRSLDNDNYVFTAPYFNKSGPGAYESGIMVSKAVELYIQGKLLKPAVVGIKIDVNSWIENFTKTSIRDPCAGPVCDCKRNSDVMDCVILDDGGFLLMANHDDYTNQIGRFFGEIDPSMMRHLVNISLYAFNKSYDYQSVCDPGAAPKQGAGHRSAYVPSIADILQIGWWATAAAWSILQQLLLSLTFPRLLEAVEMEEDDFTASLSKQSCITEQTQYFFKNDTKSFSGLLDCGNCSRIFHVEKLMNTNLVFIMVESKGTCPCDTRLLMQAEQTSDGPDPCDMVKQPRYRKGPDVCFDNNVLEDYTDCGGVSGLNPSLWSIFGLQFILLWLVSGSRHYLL", "T1 sequence (P54285 whole entry partner)": "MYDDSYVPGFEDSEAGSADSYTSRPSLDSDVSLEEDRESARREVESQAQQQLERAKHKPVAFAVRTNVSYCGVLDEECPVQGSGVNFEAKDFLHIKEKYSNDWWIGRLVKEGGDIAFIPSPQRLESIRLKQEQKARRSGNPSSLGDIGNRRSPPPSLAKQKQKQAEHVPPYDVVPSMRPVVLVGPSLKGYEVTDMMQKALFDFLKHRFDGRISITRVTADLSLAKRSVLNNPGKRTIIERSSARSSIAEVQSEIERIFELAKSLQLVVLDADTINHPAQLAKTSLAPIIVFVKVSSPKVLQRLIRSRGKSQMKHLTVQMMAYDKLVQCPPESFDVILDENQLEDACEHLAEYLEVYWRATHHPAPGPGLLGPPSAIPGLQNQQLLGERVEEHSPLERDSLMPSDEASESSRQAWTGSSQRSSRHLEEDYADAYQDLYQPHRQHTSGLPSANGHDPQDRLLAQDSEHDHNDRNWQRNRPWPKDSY", "experiment": "Whole-cell patch clamp recording of VDCC currents in primary airway smooth muscle cells", "format": "cell-based", "details": "50 μM; room temperature; pulses −60 to +50 mV from −80 mV", "experimental": "So to identify the target of certain kudinosides, patch-clamp studies were used to examine the modulation of L-type calcium channel currents after Kudinosides treatment. In patch-clamp studies, whole-cell patch clamp recording of VDCC currents were performed at room temperature, in response to voltage pulses (−60 to +50 mV from a holding potential of −80 mV, 200 ms)."}}, "note": "Entries after “also recorded” stand apart in the source; their conditions may differ.", "data": [{"molecule": "CC1(C)[C@@H](O)CC[C@]2(C)[C@H]3C(=O)C=C4[C@@H]5C[C@@](C)(C(=O)O)CC[C@]5(C)CC[C@@]4(C)[C@]3(C)CC[C@@H]12", "note": "[Glycyrrhetinic acid, reference compound]", "values": [{"measurement": "relaxation of MCh-evoked force at final concentration of 500 μM", "setting": "[1]", "value": "about 50%"}, {"measurement": "IC50", "setting": "[1]; Mus musculus", "value": 84.3, "unit": "µM"}]}, {"molecule": "COC(=O)[C@@]1(C)CC[C@]2(C(=O)O)CC[C@]3(C)C(=CC[C@@H]4[C@@]5(C)C[C@H](O)[C@H](O)[C@@](C)(CO)[C@@H]5CC[C@]43C)[C@@H]2C1", "note": "[Phytolaccagenin, reference compound]", "values": [{"measurement": "relaxation of MCh-evoked force at final concentration of 500 μM", "setting": "[1]", "value": "about 50%"}]}, {"molecule": "C[C@@H]1O[C@@H](O[C@H]2[C@H](O[C@H]3[C@H](O[C@H]4CC[C@]5(C)[C@H]6CC=C7[C@@H]8CC(C)(C)CC[C@]8(C(=O)O)CC[C@@]7(C)[C@]6(C)CC[C@H]5C4(C)C)OC[C@H](O)[C@@H]3O)O[C@H](CO)[C@@H](O)[C@@H]2O)[C@H](O)[C@H](O)[C@H]1O", "note": "[Raddeanin A, reference compound]", "values": [{"measurement": "relaxation of MCh-evoked force at final concentration of 500 μM", "setting": "[1]", "value": "about 50%"}]}, {"molecule": "C[C@@H]1O[C@@H](O[C@@H]2[C@H](O)[C@@H](O)[C@H](O[C@H]3CC[C@@]4(C)C(CC[C@]5(C)C4C=C[C@]46OC[C@@]7(CCC(C)(C)CC74)[C@@H](O)C[C@]65C)C3(C)C)O[C@@H]2CO[C@@H]2O[C@H](CO)[C@@H](O)[C@H](O)[C@H]2O)[C@H](O)[C@H](O)[C@H]1O", "note": "(stereo partly drawn) [Saikosaponin C, reference compound]", "values": [{"measurement": "relaxation of MCh-evoked force at final concentration of 500 μM", "setting": "[1]", "value": "about 50%"}, {"measurement": "IC50", "setting": "[1]", "value": "> 150", "unit": "µM"}]}, {"molecule": "C[C@@H]1O[C@@H](O[C@H]2[C@H](O[C@H]3[C@H](O[C@H]4CC[C@@]5(C)[C@@H](CC[C@]6(C)[C@@H]5CC=C5[C@@H]7CC(C)(C)C[C@@H](O)[C@]7(C)CC[C@]56C)[C@@]4(C)CO)O[C@H](C(=O)O)[C@@H](O)[C@@H]3O)O[C@H](CO)[C@H](O)[C@@H]2O)[C@H](O)[C@H](O)[C@H]1O", "note": "[Soyasaponin Bb, reference compound]", "values": [{"measurement": "relaxation of MCh-evoked force at final concentration of 500 μM", "setting": "[1]", "value": "about 50%"}]}, {"molecule": "CC(C)(C)NCC(O)c1ccc(O)c(CO)c1", "note": "(stereo not drawn) [albuterol, reference compound]", "values": [{"measurement": "reduction of airway resistance at 1 minute after inhalation, 3 μg (positive control)", "setting": "[2]; 3 μg inhaled, 1 minute, printed as 'led to a reduction of'", "value": "55.59±13.07", "unit": "%"}, {"measurement": "effect on asthmatic airway resistance", "setting": "[2]; n-BuOH phase 30 μg, albuterol 3 μg, inhaled after MCh challenge", "value": "significant reduction of airway resistance"}, {"measurement": "duration of release of dyspnea", "setting": "human asthma (severe)", "value": "could not be maintained overnight"}, {"measurement": "time to release of dyspnea", "setting": "human asthma (severe)", "value": "≤ 3", "unit": "min"}]}, {"molecule": "Kudinoside A", "values": [{"measurement": "force relaxed / inhibition of evoked force at 30 μM", "setting": "[1]; force evoked by acetylcholine, cumulative concentrations, 30 μM", "value": 80, "unit": "%"}, {"measurement": "relaxation of evoked force of airway smooth muscle / bronchial rings", "setting": "[1]", "value": "significantly relaxed bronchial rings in a dose-dependent manner"}, {"measurement": "decrease of current generated by L-type calcium channel compared to vehicle", "setting": "L-type calcium channel", "value": "about 60%"}, {"measurement": "duration of release of dyspnea", "setting": "human asthma (severe)", "value": "maintained overnight"}, {"measurement": "PEF value after inhalation", "setting": "human asthma (severe); 20 mM, 15 seconds inhalation, increased from 100", "value": 320}, {"measurement": "time to release of dyspnea", "setting": "human asthma (severe)", "value": 5, "unit": "min"}]}, {"molecule": "Kudinoside C", "values": [{"measurement": "relaxation of evoked force of airway smooth muscle / bronchial rings", "setting": "[1]", "value": "strong relaxation effect on airway smooth muscles"}, {"measurement": "inhibition of airway constriction in vivo", "setting": "[2]", "value": "significant inhibition of airway constriction"}]}, {"molecule": "Kudinoside H", "values": [{"measurement": "relaxation of evoked force of airway smooth muscle / bronchial rings", "setting": "[1]", "value": "fails to show effective bronchial ring relaxation; also recorded: little effect on relaxation in vitro"}, {"measurement": "inhibition of airway constriction in vivo", "setting": "[2]", "value": "little inhibition activity of airway constriction in vivo"}]}]}
